Measurements reported in PMC7988117, “OMN6 a novel bioengineered peptide for the treatment of multidrug resistant Gram negative bacteria” (Scientific Reports, 2021).
Ends that are not written are not given here.

Assays:
Acinetobacter baumannii = experiment: VITEK 2 antimicrobial sensitivity characterization; type: cell-based; conditions: VITEK 2 system, CLSI ranges
Protocol: (§1) This experiment was conducted by Omnix Medical, by JMI Laboratories (North Liberty, IA, USA) and by Aptuit (Verona) S.r.l. (Italy), an Evotec Company. All studies were performed according to Clinical and Laboratory Standards Institute guidelines[30] for the application of the broth microdilution method. Reference strains from American Type Culture Collection (ATCC) and clinical isolates from the Evotec EvostrAIn and the JMI Laboratories SENTRY surveillance program culture collections (Acinetobacter baumannii: ACC 00445, ACC 00527, ACC 00535, ATCC 17978, ATCC 19606, ATCC BAA-1793, ACC 01076, ACC 01077, NCTC 13420, JMI #1088100 and JMI #1001007; Klebsiella pneumoniae: ATCC 43816 and ATCC BAA-1705; Escherichia coli: ACC 01001 and ATCC 25922; Staphylococcus aureus: ATCC 29213, ATCC BAA-44 and ATCC 33591; Bacillus cereus: ATCC 14579; Enterococcus faecalis: ATCC 29212; Enterococcus faecium: ATCC BAA-2319) were used. The antimicrobial activity of OMN6 was determined by 12 serial two-fold dilutions in water of the 100-fold highest compound solution; 1 µL of each well was transferred into 96 microtiter plates (final concentration: 256–0.12 µg/mL). In most strains, same procedure was used to determine the colistin antimicrobial activity (final concentration: 32–0.015 µg/mL). Bacterial strains were sub-cultured on the agar plates and incubated for 18–24 h at 35 ± 2 °C in ambient air. Following incubation, the inoculum was prepared from isolated colonies and adjusted to 0.5 McFarland turbidity standard (1 to 2 × 10^8 colony-forming units/mL) in 0.9% saline. Bacterial suspension was then diluted 1:200 in Muller-Hinton broth (from BD; Becton, Dickinson and Company, Franklin Lakes, NJ, USA) and within 15 min 100 µL/well were dispensed. Growth-control wells and sterility-check wells (uninoculated well) were present in each plate. Plates were incubated for 18–24 h at 35 ± 2 °C in ambient air. […] The antimicrobial activity to other antibiotics on most bacterial strains was determined by Evotec using the antimicrobial sensitive test from the VITEK 2 automated microbiology system (bioMérieux SA, Marcy l'Etoile, France; data presented in Table S1), or by ATCC according to CLSI (Clinical and Laboratory Standards Institute) guidelines[30]
(§2) Table S1. Supplementary information about the resistance pattern of 14 bacterial strains used in the Minimum Inhibitory Concentration study presented in Table 1. The resistance pattern of the different bacterial isolates was characterized by broth microdilution studies (for colistin) or with the VITEK 2 system (for the other antibiotics).

Escherichia coli = experiment: VITEK 2 antimicrobial sensitivity characterization; type: cell-based; conditions: VITEK 2 system, CLSI ranges
Protocol: as §1, §2

Klebsiella pneumoniae = experiment: VITEK 2 antimicrobial sensitivity characterization; type: cell-based; conditions: VITEK 2 system, CLSI ranges
Protocol: as §1, §2

Staphylococcus aureus = experiment: VITEK 2 antimicrobial sensitivity characterization; type: cell-based; conditions: VITEK 2 system, CLSI ranges; also: key: S, sensitive; I, intermediate; R, resistant
Protocol: as §1, §2

A. baumannii BAA-1793 = conditions: determined by ATCC according to CLSI guidelines, ref ATCC; cited from earlier work; also: key: S, sensitive; I, intermediate; R, resistant
From the text: Supplement 41598_2021_86155_MOESM1_ESM.docx, table 3: Table S3. Supplementary information about the resistance pattern of the bacterial strain A. baumannii BAA-1793 used in the Minimum Inhibitory Concentration study presented in Table 1.

HEK293T cells = type: cell-based
Protocol: HEK-293T17 cells (ATCC CRL-1573) were purchased from ATCC and cultured to 80% confluency according to the ATCC culture method, using high-glucose and L-Glutamine Dulbecco's Modified Eagle Medium (DMEM) medium (ATCC catalog number 30-2002) supplemented with 10% fetal bovine serum and 1% Penicillin–Streptomycin solution (all from Biological Industries). For the experiment purposes, 30,000 cells were transferred to a 96-well plate (experiment plate) in a final volume of 100 µL of medium. The experiment plate was incubated at 5% CO2 and 37 °C for approximately 18 h. After 18 h, medium was discarded, and cells were co-incubated with OMN6, Melittin (Sigma-Aldrich) or dimethyl sulfoxide (DMSO; MP Biomedical LLC, Solon, OH, USA) that were prepared in new medium at desired concentrations. The experiment plate was incubated at 5% CO2 and 37 °C for 24 h. Then, glutaraldehyde at a final concentration of 0.5% was added in all wells for 10 min for cell fixation. After washing the plate 3 times with DDW, the experiment plate was dried overnight. Then, cells were washed with 0.1 M Borate buffer (pH = 8.5) for 1 min. 100 µL Methylene Blue diluted in the same Borate buffer was added to all wells for 1 h. Wells were washed with DDW and plate was dried overnight. Color extraction was executed by adding 0.1 M HCl. After an incubation at 37 °C for 1 h, cell survival was determined via absorbance at 620 nm using a microplate reader.

Proteinase-K = target: T1, Proteinase-K (Parengyodontium album, UniProt P06873); experiment: Peptide stability to Proteinase-K (SDS-PAGE); type: in vitro ADME; conditions: 10 µg peptide with 5 or 20 ng Proteinase-K (0.16 or 0.66 µg/mL), 2 h, 37 °C; 15% acrylamide SDS-PAGE, Coomassie stain
T1 construct: purchased Sigma-Aldrich
T1 sequence (P06873 106-384): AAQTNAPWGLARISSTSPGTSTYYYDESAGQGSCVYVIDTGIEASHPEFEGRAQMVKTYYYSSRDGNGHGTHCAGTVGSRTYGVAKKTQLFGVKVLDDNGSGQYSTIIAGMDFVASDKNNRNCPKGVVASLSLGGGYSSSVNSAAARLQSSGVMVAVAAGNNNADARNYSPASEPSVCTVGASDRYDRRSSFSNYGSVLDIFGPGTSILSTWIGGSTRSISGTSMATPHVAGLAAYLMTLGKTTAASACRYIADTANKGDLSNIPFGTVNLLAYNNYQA
Protocol: 10 µg of synthetic cecropin A (Genscript, Piscataway, NJ, USA), OMN6, or bovine serum albumin (BSA; Sigma-Aldrich, St. Louis, MO, USA) were incubated with 5 or 20 ng Proteinase-K (Sigma-Aldrich; final treatment concentration of 0.16 or 0.66 µg/mL respectively) for 2 h at 37 °C, and separated on a 15% acrylamide gel (Bio-Rad, Hercules, CA, USA) by SDS-PAGE. The gel was then stained with Coomassie dye and excess color was removed over-night.

Compound: C[C@@H](O)[C@H]1C(=O)N2C(C(=O)O)=C(SCCN=CN)C[C@H]12 [IMP, imipenem]
- VITEK characterization (resistance range) (Acinetobacter baumannii; A. baumannii ACC 00445): R
- VITEK characterization (resistance range) (Acinetobacter baumannii; A. baumannii ACC 00527): R
- VITEK characterization (resistance range) (Acinetobacter baumannii; A. baumannii ACC 00535): I
- VITEK characterization (resistance range) (Acinetobacter baumannii; A. baumannii ACC 01076): R
- VITEK characterization (resistance range) (Acinetobacter baumannii; A. baumannii ACC 01077): R
- VITEK characterization (resistance range) (Acinetobacter baumannii; A. baumannii ATCC 17978): S
- VITEK characterization (resistance range) (Acinetobacter baumannii; A. baumannii ATCC 19606): S
- VITEK characterization (resistance range) (Acinetobacter baumannii; A. baumannii NCTC 13420): I
- VITEK characterization (resistance range) (Escherichia coli; E. coli ACC 01001): S
- VITEK characterization (resistance range) (Escherichia coli; E. coli ATCC 25922): S
- VITEK characterization (resistance range) (Klebsiella pneumoniae; K. pneumoniae ATCC 43816): S
- VITEK characterization (resistance range) (Klebsiella pneumoniae; K. pneumoniae ATCC BAA-1705): R
- VITEK characterization (resistance range) (Staphylococcus aureus; S. aureus ATCC 29213): S
- VITEK characterization (resistance range) (Staphylococcus aureus; S. aureus ATCC 33591): R
- Resistance pattern (A. baumannii BAA-1793): R

Compound: C[S+](C)[O-] [DMSO, dimethyl sulfoxide]
- Cytotoxicity on HEK293T cells (HEK293T cells): > 90%

Compound: CC(C)(O/N=C(\C(=O)N[C@@H]1C(=O)N2C(C(=O)[O-])=C(C[n+]3ccccc3)CS[C@H]12)c1csc(N)n1)C(=O)O [CAZ, ceftazidime]
- VITEK characterization (resistance range) (Acinetobacter baumannii; A. baumannii ACC 00445): R
- VITEK characterization (resistance range) (Acinetobacter baumannii; A. baumannii ACC 00527): R
- VITEK characterization (resistance range) (Acinetobacter baumannii; A. baumannii ACC 00535): R
- VITEK characterization (resistance range) (Acinetobacter baumannii; A. baumannii ATCC 17978): S
- VITEK characterization (resistance range) (Acinetobacter baumannii; A. baumannii ATCC 19606): I
- VITEK characterization (resistance range) (Escherichia coli; E. coli ACC 01001): S
- VITEK characterization (resistance range) (Escherichia coli; E. coli ATCC 25922): S
- VITEK characterization (resistance range) (Klebsiella pneumoniae; K. pneumoniae ATCC 43816): S
- VITEK characterization (resistance range) (Klebsiella pneumoniae; K. pneumoniae ATCC BAA-1705): R
- Resistance pattern (A. baumannii BAA-1793): R

Compound: KWKLFKKIEKVGQNIRDGIIKAGPAVAVVGQATQIAK-NH2 [Cecropin A]
- Stability after exposure to Proteinase-K (Proteinase-K): major degradation

Compound: CO/N=C(\C(=O)N[C@@H]1C(=O)N2C(C(=O)O)=C(COC(C)=O)CS[C@H]12)c1csc(N)n1 [CTX, cefotaxime]
- VITEK characterization (resistance range) (Acinetobacter baumannii; A. baumannii ACC 00445): R
- VITEK characterization (resistance range) (Acinetobacter baumannii; A. baumannii ACC 00527): R
- VITEK characterization (resistance range) (Acinetobacter baumannii; A. baumannii ACC 00535): R
- VITEK characterization (resistance range) (Acinetobacter baumannii; A. baumannii ATCC 17978): S
- VITEK characterization (resistance range) (Acinetobacter baumannii; A. baumannii ATCC 19606): I
- VITEK characterization (resistance range) (Escherichia coli; E. coli ACC 01001): S
- VITEK characterization (resistance range) (Escherichia coli; E. coli ATCC 25922): S
- VITEK characterization (resistance range) (Klebsiella pneumoniae; K. pneumoniae ATCC 43816): S
- VITEK characterization (resistance range) (Klebsiella pneumoniae; K. pneumoniae ATCC BAA-1705): R
- Resistance pattern (A. baumannii BAA-1793): R
